From article PMC12306498, “Microwave-assisted synthesis of tubulin assembly inhibitors as anticancer agents by aryl ring reversal and conjunctive approach” (RSC Medicinal Chemistry, 2025)
Several values for one entry are separate records, joined by “and”; a condition that tells them apart may be missing. Equal entries are not always repeated. Where two headings read alike, the source gives them in different places.

Experiments:
[1] = system: tubulin; test: Inhibition of tubulin polymerization (tubulin assembly, turbidity at 350 nm); format: biochemical; conditions: tubulin at 10 μM, read-out: Tubulin IC50 ± SD
Description: The assembly reaction mixtures contained 0.8 M monosodium glutamate (pH 6.6 with HCl in a 2 M stock solution), 10 μM tubulin, 4% (v/v) DMSO, and varying concentrations of drug. Following a 15 min preincubation at 30 °C, samples were chilled on ice, GTP to 0.4 mM was added, and turbidity development was followed at 350 nm in a temperature-controlled recording spectrophotometer for 20 min at 30 °C. The extent of reaction was measured. Full experimental details were previously described.[35]

[2] = system: tubulin; test: Inhibition of [3H]colchicine binding to tubulin; conditions: for Colch. binding (% ± SD): inhibition of [3H]colchicine binding, tubulin, [3H]colchicine, inhibitor at 1, 5 and 5 μM
Description: The reaction mixtures contained 1.0 μM tubulin, 5.0 μM [^3H]colchicine, and 5.0 or 1.0 μM inhibitor, as indicated, and were incubated for 10 min at 37 °C. Complete details were described previously.[36]

[3] = system: MCF-7 human breast carcinoma cells; test: MCF-7 cell growth inhibition; format: cell-based; conditions: read-out: MCF-7 IC50 ± SD
[4] = Homo sapiens, MCF7, cells grown for 96 h
[5] = Homo sapiens, MCF7, 96 h, cells grown for 96 h

| SMILES | IC50 [1] [nM] | Colch. binding (% ± SD) [2] | IC50 [3, 4] [nM] | IC50 [3, 5] [nM] | Inhibition of [3H]colchicine binding ([2]; inhibitor at 1 μM, tubulin 1 μM, [3H]colchicine 5 μM) [%] | IC50 ([3]; cells grown for 96 h) [nM] |
| --- | --- | --- | --- | --- | --- | --- |
| COc1cc(C(=O)c2cn(-c3ncccn3)cc2-c2ccc(N3CCCCC3)cc2)cc(OC)c1OC [Compound 24, (4-(4-(Piperidin-1-yl)phenyl)-1-(pyrimidin-2-yl)-1H-pyrrol-3-yl)(3,4,5-trimethoxyphenyl)methanone] | 630 ± 40 | 35 ± 2% | 112 ± 7.7 | – | – | – |
| COc1cc(C(=O)c2cn(-c3cccnc3)cc2-c2ccc(N(C)C)cc2)cc(OC)c1OC [Compound 13, (4-(4-(Dimethylamino)phenyl)-1-(pyridin-3-yl)-1H-pyrrol-3-yl)(3,4,5-trimethoxyphenyl)methanone] | 3400 ± 300 | 9.6 ± 4% | 1000 ± 100 | – | – | – |
| COc1cc(C(=O)c2cn(-c3ncccn3)c3ccc(Cl)cc23)cc(OC)c1OC [Compound 27, (5-Chloro-1-(pyrimidin-2-yl)-1H-indol-3-yl)(3,4,5-trimethoxyphenyl)methanone] | 1000 ± 90 | 34 ± 5% | – | 77 ± 10 | – | – |
| COc1cc(C(=O)c2cn(-c3ccccn3)cc2-c2ccc(Cl)cc2)cc(OC)c1OC [Compound 6, (4-(4-Chlorophenyl)-1-(pyridin-2-yl)-1H-pyrrol-3-yl)(3,4,5-trimethoxyphenyl)methanone] | 520 ± 5 | 66 ± 3% | 340 ± 60 | – | – | – |
| COc1ccc2c(c1)c(C(=O)c1cc(OC)c(OC)c(OC)c1)cn2-c1ncccn1 [Compound 30, (5-Methoxy-1-(pyrimidin-2-yl)-1H-indol-3-yl)(3,4,5-trimethoxyphenyl)methanone] | 380 ± 40 | 71% and 71 ± 5% | – | 220 ± 60 | – | – |
| COc1cc(C(=O)c2cn(-c3cccnc3)cc2-c2ccc(C)cc2)cc(OC)c1OC [Compound 9, (1-(Pyridin-3-yl)-4-(4-tolyl)-1H-pyrrol-3-yl)(3,4,5-trimethoxyphenyl)methanone] | 1900 ± 200 | 20 ± 5% | 670 ± 200 | – | – | – |
| COc1cc(C(=O)c2cn(-c3ccccn3)cc2-c2ccc(C)cc2)cc(OC)c1OC [Compound 3, (1-(Pyridin-2-yl)-4-(4-tolyl)-1H-pyrrol-3-yl)(3,4,5-trimethoxyphenyl)methanone] | 500 ± 100 | 59 ± 0.9% | 1500 ± 200 | – | – | – |
| COc1cc(C(=O)c2cn(-c3ccccn3)cc2-c2ccc(C(F)(F)F)cc2)cc(OC)c1OC [Compound 5, (1-(Pyridin-2-yl)-4-(4-(trifluoromethyl)phenyl)-1H-pyrrol-3-yl)(3,4,5-trimethoxyphenyl)methanone] | 2000 ± 100 | 3.2 ± 5% | 652 ± 12.6 | – | – | – |
| COc1ccc(-c2cn(-c3cccnc3)cc2C(=O)c2cc(OC)c(OC)c(OC)c2)cc1 [Compound 10, (4-(4-Methoxyphenyl)-1-(pyridin-3-yl)-1H-pyrrol-3-yl)(3,4,5-trimethoxyphenyl)methanone] | 840 ± 20 | 29 ± 0.8% | 758 ± 9.3 | – | – | – |
| COc1ccc(/C=C\c2cc(OC)c(OC)c(OC)c2)cc1O [CA4, combretastatin A-4, reference compound] | – | – | – | – | 78 | – |
| COc1cc(C(=O)c2cn(-c3ncccn3)cc2-c2ccc([N+](=O)[O-])cc2)cc(OC)c1OC [Compound 21, (4-(4-Nitrophenyl)-1-(pyrimidin-2-yl)-1H-pyrrol-3-yl)(3,4,5-trimethoxyphenyl)methanone] | 1300 ± 200 | 34 ± 1% | 450 ± 100 | – | – | – |
| COc1cc(C(=O)c2cn(-c3ncccn3)cc2-c2ccc(C(F)(F)F)cc2)cc(OC)c1OC [Compound 19, (1-(Pyrimidin-2-yl)-4-(4-(trifluoromethyl)phenyl)-1H-pyrrol-3-yl)(3,4,5-trimethoxyphenyl)methanone] | 2800 ± 100 | 18 ± 4% | 530 | – | – | – |
| COc1cc(C(=O)c2cn(-c3ncccn3)cc2-c2ccc(Cl)cc2)cc(OC)c1OC [Compound 20, (4-(4-Chlorophenyl)-1-(pyrimidin-2-yl)-1H-pyrrol-3-yl)(3,4,5-trimethoxyphenyl)methanone] | 760 ± 100 | 69 ± 4% | – | 68 ± 10 | – | – |
| COc1cc(OC)cc(-c2cn(-c3ccccn3)cc2C(=O)c2cc(OC)c(OC)c(OC)c2)c1 [Compound 8, (4-(3,5-Dimethoxyphenyl)-1-(pyridin-2-yl)-1H-pyrrol-3-yl)(3,4,5-trimethoxyphenyl)methanone] | 1600 ± 200 | 21 ± 5% | 2200 ± 400 | – | – | – |
| COc1cc(C(=O)c2cn(-c3cccnc3)cc2-c2ccc(C(F)(F)F)cc2)cc(OC)c1OC [Compound 12, (1-(Pyridin-3-yl)-4-(4-(trifluoromethyl)phenyl)-1H-pyrrol-3-yl)(3,4,5-trimethoxyphenyl)methanone] | > 20000 | – | 3900 ± 70 | – | – | – |
| COc1cc(C(=O)c2cn(-c3ncccn3)cc2-c2ccc(C)cc2)cc(OC)c1OC [Compound 14, (1-(Pyrimidin-2-yl)-4-(4-tolyl)-1H-pyrrol-3-yl)(3,4,5-trimethoxyphenyl)methanone] | 1300 ± 40 | 54 ± 3% | 170 ± 50 | – | – | – |
| COc1cc(OC)cc(-c2cn(-c3ncccn3)cc2C(=O)c2cc(OC)c(OC)c(OC)c2)c1 [Compound 16, (4-(3,5-Dimethoxyphenyl)-1-(pyrimidin-2-yl)-1H-pyrrol-3-yl)(3,4,5-trimethoxyphenyl)methanone] | 1100 ± 60 | 25 ± 5% | 780 ± 40 | – | – | – |
| COc1cc(C(=O)c2cn(-c3ccccn3)c3ccc(Cl)cc23)cc(OC)c1OC [Compound 25, (5-Chloro-1-(pyridin-2-yl)-1H-indol-3-yl)(3,4,5-trimethoxyphenyl)methanone] | 1500 ± 300 | 36 ± 4% | – | 42 | – | 41.7 ± 2.6 |
| COc1ccc(-c2cn(-c3ncccn3)cc2C(=O)c2cc(OC)c(OC)c(OC)c2)cc1 [Compound 15, (4-(4-Methoxyphenyl)-1-(pyrimidin-2-yl)-1H-pyrrol-3-yl)(3,4,5-trimethoxyphenyl)methanone] | 1100 ± 100 | 65 ± 5% | 95 ± 20 | – | – | – |
| COc1cc(C(=O)c2cn(-c3ccccn3)cc2-c2ccc(N(C)C)cc2)cc(OC)c1OC [Compound 7, (4-(4-(Dimethylamino)phenyl)-1-(pyridin-2-yl)-1H-pyrrol-3-yl)(3,4,5-trimethoxyphenyl)methanone] | 430 ± 40 | 72% and 72 ± 0.2% | 120 ± 40 | – | – | – |
| COc1cc(C(=O)c2cn(-c3ncccn3)cc2-c2cc(OC)c(OC)c(OC)c2)cc(OC)c1OC [Compound 17, (1-(Pyrimidin-2-yl)-4-(3,4,5-trimethoxyphenyl)-1H-pyrrol-3-yl)(3,4,5-trimethoxyphenyl)methanone] | > 20000 | – | > 5000 | – | – | – |
| COc1cc(C(=O)c2cn(-c3ncccn3)c3ccc(F)cc23)cc(OC)c1OC [Compound 28, (5-Fluoro-1-(pyrimidin-2-yl)-1H-indol-3-yl)(3,4,5-trimethoxyphenyl)methanone] | 590 ± 100 | 45 ± 0.8% | – | 73 ± 4 | – | – |
| COc1cc(C(=O)c2cn(-c3ncccn3)cc2-c2ccc(N(C)C)cc2)cc(OC)c1OC [Compound 22, (4-(4-(Dimethylamino)phenyl)-1-(pyrimidin-2-yl)-1H-pyrrol-3-yl)(3,4,5-trimethoxyphenyl)methanone] | 680 ± 100 | 80 ± 0.2% | 10 | – | – | – |
